These results are taken from patent US12173313B2, “Assembly of functionally integrated human forebrain spheroids and methods of use thereof” (The Board of Trustees of the Leland Stanford Junior …, priority 2017, dated 2024).

The subject of assay [1] is Dlxi1/2b::eGFP+ cells in fused hSS-hCS. Put plainly: Live imaging of interneuron migration in fused hSS-hCS (control). The settings on record: 100 nM, before vs after exposure. The assay is classed as cell-based, human. As for the experimental part:
Live imaging and analysis of Dlxi1/2b::eGFP+ cell migration. The migration of Dlxi1/2b::eGFP+ cells was imaged for 8-12 hrs under environmentally controlled conditions (37° C., 5% CO2) in intact, fused hSS-hCS using a confocal microscope with a motorized stage (Leica SP8). Fused hSS-hCS were transferred to a well of a 96-well plate (glass-bottom plates, Corning) in 200 μl of NM. Spheroids were incubated in the environmentally controlled chamber for 30-60 min prior to imaging. During a given recording session, up to 8 fused hSS-hCS were imaged at a depth of 50-150 μm depth and a rate of 15-20 min/frame. For pharmacological manipulation, cells were imaged for 12 hrs to record a baseline. Then, the media was carefully removed and new media with small molecules (AMD3100 at 100 nM; nimodipine at 5 μM; or roscovitine at 15 μM) was gently added to the well. The field of view was readjusted to capture the previous region of interest and cells in fused hSS-hCS were imaged for an additional 12 hrs. For imaging of Dlxi1/2b::eGFP+ cells, E17-E18 slices were placed on inserts and infected with Dlxi1/2b::eGFP lentivirus after 24 hrs. The slices were imaged 2 days later using a Leica SP8 confocal microscope (see above). For measuring the branch to soma length ratio of human cells on mouse slices, hSSs infected with Dlxi1/2b::eGFP lentivirus were dissociated and placed on top of E13-14 mouse slices, which were placed on cell culture inserts 8-24 hrs before. The hSS-derived Dlxi1/2b::eGFP+ cells were imaged with the Leica SP8 confocal microscope system at least 48 hrs later. The migration of mouse Dlxi1/2b::eGFP+ cells or Cav1.2-electroporated cells and the migration of human fetal Dlxi1/2b::eG FP-infected cells both imaged using the same setting as described for intact, fused hSS-hCS. Slices were kept on the cell culture inserts during imaging. For quantification of migration of Dlxi1/2b::eGFP+ cells after plating on coverslips, intact hSS were plated on Poly-ornithine/laminin (Sigma) coated glass coverslips (15 mm; Werner). Cells were imaged 7-10 days after using a confocal microscope (Leica SP8) as described above. ImageJ and the Chemotaxis & Migration Tool (Ibidi) were used for the post-acquisition analysis of cell mobility. The StackReg plugin in ImageJ was used to correct for minor drifts during imaging. To estimate the length of individual saltations, Dlxi1/2b::eGFP cells displaying a swelling of the soma were identified, and distance (in μm) to the new position of the soma following nucleokinesis was recorded manually. The time necessary for this movement was used to calculate the speed when mobile. […] Path directness was calculated as the E/A ratio. […]

In assay [2] the target is element-binding protein (CBP) (Homo sapiens, UniProt Q92793). The settings on record: cited from earlier work.
Chain of element-binding protein (CBP) (Q92793 whole entry): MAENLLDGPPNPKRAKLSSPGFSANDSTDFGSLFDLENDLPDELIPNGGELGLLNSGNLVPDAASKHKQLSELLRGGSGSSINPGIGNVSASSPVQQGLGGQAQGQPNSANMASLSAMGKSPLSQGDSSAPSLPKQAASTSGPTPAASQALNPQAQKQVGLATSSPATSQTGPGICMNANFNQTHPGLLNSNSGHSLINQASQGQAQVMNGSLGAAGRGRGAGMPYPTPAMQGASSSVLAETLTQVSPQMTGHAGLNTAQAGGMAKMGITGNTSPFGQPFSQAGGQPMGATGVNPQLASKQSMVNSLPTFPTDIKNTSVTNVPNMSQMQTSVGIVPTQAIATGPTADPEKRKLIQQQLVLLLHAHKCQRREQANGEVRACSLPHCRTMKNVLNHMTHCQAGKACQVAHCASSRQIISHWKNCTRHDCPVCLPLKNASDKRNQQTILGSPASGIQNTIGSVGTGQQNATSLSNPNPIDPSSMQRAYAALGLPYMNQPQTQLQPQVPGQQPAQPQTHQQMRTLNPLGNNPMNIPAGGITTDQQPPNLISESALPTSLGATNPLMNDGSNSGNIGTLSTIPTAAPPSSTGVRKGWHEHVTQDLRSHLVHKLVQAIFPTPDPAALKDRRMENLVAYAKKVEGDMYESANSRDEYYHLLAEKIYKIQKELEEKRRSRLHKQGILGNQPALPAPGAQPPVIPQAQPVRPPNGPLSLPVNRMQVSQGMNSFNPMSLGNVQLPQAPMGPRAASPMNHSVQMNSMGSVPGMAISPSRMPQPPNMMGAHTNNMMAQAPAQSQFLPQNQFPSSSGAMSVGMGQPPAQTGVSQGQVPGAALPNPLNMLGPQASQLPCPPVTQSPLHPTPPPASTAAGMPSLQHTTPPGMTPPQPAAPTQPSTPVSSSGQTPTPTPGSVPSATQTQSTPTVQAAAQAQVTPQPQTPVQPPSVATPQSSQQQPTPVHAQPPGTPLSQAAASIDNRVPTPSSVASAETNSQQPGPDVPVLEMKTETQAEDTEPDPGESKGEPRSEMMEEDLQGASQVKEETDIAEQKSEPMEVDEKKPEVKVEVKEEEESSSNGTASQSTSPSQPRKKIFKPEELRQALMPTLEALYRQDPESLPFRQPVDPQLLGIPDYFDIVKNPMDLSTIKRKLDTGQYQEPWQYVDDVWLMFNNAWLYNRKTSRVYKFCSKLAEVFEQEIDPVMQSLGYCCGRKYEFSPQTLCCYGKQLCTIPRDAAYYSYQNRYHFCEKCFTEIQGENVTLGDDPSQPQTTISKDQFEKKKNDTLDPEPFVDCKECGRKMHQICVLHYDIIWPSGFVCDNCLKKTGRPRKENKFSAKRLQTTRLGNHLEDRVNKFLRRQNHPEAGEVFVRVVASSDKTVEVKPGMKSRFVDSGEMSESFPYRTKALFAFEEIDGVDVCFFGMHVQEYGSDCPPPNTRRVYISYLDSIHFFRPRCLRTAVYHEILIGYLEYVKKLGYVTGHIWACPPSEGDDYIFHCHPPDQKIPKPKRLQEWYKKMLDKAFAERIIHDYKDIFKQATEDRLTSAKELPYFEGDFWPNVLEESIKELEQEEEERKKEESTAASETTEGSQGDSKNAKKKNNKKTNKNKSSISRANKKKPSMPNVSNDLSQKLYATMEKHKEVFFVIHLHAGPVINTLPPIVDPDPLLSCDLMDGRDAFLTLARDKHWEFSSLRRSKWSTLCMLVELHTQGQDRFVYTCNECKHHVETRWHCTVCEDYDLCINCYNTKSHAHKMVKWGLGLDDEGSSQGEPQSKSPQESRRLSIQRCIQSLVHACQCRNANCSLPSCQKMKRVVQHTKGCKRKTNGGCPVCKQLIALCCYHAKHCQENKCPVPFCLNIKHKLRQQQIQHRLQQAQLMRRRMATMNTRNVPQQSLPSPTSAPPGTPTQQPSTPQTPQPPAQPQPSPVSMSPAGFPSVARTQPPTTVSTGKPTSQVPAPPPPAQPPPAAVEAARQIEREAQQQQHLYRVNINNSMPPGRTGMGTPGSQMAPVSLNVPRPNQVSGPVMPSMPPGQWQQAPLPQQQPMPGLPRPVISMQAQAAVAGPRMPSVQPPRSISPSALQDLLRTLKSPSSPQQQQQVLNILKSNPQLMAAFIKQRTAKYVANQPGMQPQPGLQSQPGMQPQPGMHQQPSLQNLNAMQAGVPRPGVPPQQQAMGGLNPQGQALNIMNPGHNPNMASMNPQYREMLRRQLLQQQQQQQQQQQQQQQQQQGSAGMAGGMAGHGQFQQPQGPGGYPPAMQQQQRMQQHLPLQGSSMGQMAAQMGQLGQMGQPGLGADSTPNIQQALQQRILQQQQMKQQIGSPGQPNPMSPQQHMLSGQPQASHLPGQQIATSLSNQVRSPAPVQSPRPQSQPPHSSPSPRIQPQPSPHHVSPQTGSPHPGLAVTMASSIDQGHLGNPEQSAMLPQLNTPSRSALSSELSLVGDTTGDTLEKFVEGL
Assay [3] has as its system Wnt processing and secretion. The settings on record: cell-free assay; read-out: IC50, inhibition of Wnt processing and secretion; cited from earlier work.
The next assay concerns the target T1, Porcn (Homo sapiens, UniProt Q9H237).
T1 sequence (Q9H237 1-461): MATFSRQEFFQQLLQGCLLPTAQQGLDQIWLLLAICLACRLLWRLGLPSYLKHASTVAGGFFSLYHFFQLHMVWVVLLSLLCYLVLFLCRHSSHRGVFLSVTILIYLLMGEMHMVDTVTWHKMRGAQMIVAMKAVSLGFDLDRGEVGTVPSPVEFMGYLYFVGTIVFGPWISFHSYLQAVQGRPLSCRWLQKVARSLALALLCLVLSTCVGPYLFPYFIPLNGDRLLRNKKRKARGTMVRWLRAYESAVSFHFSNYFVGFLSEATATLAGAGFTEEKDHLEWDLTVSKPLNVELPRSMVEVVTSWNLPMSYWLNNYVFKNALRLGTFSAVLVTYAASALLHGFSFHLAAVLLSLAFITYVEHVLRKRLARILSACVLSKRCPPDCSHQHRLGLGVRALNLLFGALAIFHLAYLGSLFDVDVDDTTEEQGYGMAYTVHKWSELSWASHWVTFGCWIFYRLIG
The settings on record: read-out: EC50, Porcn inhibition; cited from earlier work.

The subject of the next assay is Wnt signaling. The settings on record: TM3 cells; read-out: IC50, inhibition of Wnt signaling; cited from earlier work.
The target of another assay is Smo (Homo sapiens, UniProt Q99835). The settings on record: read-out: KD, Smo heptahelical domain; cited from earlier work.
Chain of Smo (Q99835 28-787): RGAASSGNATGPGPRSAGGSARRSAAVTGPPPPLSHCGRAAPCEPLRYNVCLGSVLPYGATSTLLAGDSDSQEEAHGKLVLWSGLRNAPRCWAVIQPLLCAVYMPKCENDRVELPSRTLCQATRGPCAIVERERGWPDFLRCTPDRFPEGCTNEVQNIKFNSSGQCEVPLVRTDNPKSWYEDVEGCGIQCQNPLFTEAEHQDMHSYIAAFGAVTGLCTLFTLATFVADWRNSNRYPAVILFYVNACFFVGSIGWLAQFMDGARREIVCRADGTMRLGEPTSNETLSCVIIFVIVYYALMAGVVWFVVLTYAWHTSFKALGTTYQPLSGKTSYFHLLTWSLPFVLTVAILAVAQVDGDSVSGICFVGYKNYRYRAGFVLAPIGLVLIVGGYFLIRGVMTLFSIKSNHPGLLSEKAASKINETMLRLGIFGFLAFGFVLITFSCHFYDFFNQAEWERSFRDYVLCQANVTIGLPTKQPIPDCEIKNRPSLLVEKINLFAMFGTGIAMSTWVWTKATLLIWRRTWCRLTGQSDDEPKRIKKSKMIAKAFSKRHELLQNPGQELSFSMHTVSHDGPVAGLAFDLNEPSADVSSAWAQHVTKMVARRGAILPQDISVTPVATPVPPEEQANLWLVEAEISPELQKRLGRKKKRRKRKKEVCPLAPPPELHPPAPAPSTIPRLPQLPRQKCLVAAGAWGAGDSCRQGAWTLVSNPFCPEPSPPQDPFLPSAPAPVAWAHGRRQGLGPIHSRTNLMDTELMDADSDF
The next assay addresses T2, TNKS2 (Homo sapiens, UniProt Q9H2K2).
T2 sequence (Q9H2K2 1-1166): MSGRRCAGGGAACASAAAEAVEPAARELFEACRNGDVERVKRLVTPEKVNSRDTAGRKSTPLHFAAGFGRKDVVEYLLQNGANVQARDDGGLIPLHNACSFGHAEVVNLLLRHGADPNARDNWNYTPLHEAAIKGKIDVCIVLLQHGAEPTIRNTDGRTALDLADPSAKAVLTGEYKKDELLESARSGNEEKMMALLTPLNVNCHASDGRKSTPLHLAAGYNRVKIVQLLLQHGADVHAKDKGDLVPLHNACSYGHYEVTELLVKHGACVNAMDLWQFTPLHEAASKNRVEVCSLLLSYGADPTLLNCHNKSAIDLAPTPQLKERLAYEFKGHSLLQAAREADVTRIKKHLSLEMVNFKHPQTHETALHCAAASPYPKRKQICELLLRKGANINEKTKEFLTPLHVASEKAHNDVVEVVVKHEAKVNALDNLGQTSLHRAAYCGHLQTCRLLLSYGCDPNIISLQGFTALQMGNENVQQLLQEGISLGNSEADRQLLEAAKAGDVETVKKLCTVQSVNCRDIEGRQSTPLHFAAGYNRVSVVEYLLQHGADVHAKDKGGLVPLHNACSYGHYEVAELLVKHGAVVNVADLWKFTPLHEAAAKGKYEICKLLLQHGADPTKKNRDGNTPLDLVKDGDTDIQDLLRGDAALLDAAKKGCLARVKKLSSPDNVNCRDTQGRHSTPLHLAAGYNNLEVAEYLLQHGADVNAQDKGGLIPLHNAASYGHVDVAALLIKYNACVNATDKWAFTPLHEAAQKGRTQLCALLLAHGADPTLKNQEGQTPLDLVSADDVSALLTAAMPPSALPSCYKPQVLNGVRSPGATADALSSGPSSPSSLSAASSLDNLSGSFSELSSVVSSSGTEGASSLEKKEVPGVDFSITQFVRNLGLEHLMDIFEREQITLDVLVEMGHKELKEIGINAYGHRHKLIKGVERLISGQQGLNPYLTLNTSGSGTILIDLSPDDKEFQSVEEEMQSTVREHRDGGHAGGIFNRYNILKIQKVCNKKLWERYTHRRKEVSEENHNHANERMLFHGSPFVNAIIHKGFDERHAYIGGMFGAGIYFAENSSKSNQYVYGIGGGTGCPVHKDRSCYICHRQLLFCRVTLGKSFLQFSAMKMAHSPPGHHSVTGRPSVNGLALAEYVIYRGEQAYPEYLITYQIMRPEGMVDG
The settings on record: cited from earlier work.

The target in assay [4] is Wnt3A-mediated activation of a multimerized TCF-binding site driving luciferase. The settings on record: HEK293 cells; cited from earlier work.
Assay [5] concerns hSS. The assay is described as follows: Characterization of hSS differentiation conditions (RT-qPCR, immunostaining). The settings on record: AlloP with or without RA (hSS-ISA, hSS-ISRA). Background: Real-time PCR tracks product formation cycle by cycle.
Experimental: For the generation of hSS, the medium was supplemented with additional small molecules during the first 23 days in culture; a schematic showing the recipes is presented in FIG. 8a). […] IWP-2 (5 μM; Selleckchem) from day 4 until day 24, and the SHH pathway agonist SAG (smoothened agonist; 100 nM; Selleckchem) from day 12 to day 24. The hSS-ISA condition also included IWP2 and SAG with the addition of allopregnanolone (AlloP 100 nM; Cayman Chemicals) from day 15 to day 23, while the hSS-ISRA condition included AlloP (100 nM) from day 15-23, and a brief exposure (day 12-15) to retinoic acid (RA 100 nM; Sigma). From day 25 to 42, the NM for both the hCS and hSS conditions, was supplemented with the growth factors BDNF (20 ng/ml; Peprotech) and NT3 (20 ng/ml; Peprotech) with medium changes every other day. From day 43 onwards, hCS and hSS were maintained in unsupplemented NM with medium changes every four to six days.
Immunohistochemistry. Cryosections were washed with PBS to remove excess OCT and blocked in 10% goat serum (NGS), 0.3% Triton X-100 diluted in PBS for 1 hr at room temperature. […]
Real time quantitative PCR (qPCR). mRNA was isolated using the RNeasy Mini Kit and RNase-Free DNase set (Qiagen), and template cDNA was prepared by reverse transcription using the SuperScript III First-Strand Synthesis SuperMix for qRT-PCR (Life Technologies). […]
Assay [6] has as its system hSS. Put plainly: Fluo-4 calcium imaging in intact hSS. The settings on record: 7 days AlloP 100 nM combined with 3-day retinoic acid 100 nM (hSS-ISRA); ~day 50; P=0.006.
Experimental: The generation of hCS from hiPSC was performed as previously described. […] For the generation of hSS, the medium was supplemented with additional small molecules during the first 23 days in culture; a schematic showing the recipes is presented in FIG. 8a). […] IWP-2 (5 μM; Selleckchem) from day 4 until day 24, and the SHH pathway agonist SAG (smoothened agonist; 100 nM; Selleckchem) from day 12 to day 24. The hSS-ISA condition also included IWP2 and SAG with the addition of allopregnanolone (AlloP 100 nM; Cayman Chemicals) from day 15 to day 23, while the hSS-ISRA condition included AlloP (100 nM) from day 15-23, and a brief exposure (day 12-15) to retinoic acid (RA 100 nM; Sigma). From day 25 to 42, the NM for both the hCS and hSS conditions, was supplemented with the growth factors BDNF (20 ng/ml; Peprotech) and NT3 (20 ng/ml; Peprotech) with medium changes every other day. From day 43 onwards, hCS and hSS were maintained in unsupplemented NM with medium changes every four to six days.
Fluo-4 calcium imaging in intact hSS. […] Spontaneous calcium activity was recorded for 10 min (one frame every 8-10 s) in one 10 μm z-stack plane. Fluorescence intensity (F) was exported as mean gray values in ImageJ. Signal decay was controlled by subtracting the mean fluorescence of the background (Fb). […]
In assay [7] the test system is Dlxi1/2b::eGFP cells that migrated into hCS. The settings on record: 10 μM; fused hSS-hCS slices. As for the experimental part:
(§1) Electrophysiology. […] Slicing was performed using a Leica VT1200 vibratome. Immediately after sectioning, slices were moved to a circulation chamber containing ACSF at 32° C.
(§2) For patch-clamp recording, cells were identified by the presence of a fluorescent reporter using an upright Axoscop II microscope (Zeiss). […] Cl− reversal was calculated to be at −91 mV according to the Nernst equation. […] The Cl− reversal potential was calculated to be 0 mV according to the Nernst equation. IPSCs were blocked by application of the GABAA receptor antagonist gabazine (10 μM, Abcam), which was added to superfused ACSF. EPSCs were blocked by application of the glutamate receptor antagonist kynurenic acid (1 mM, Abcam), which was added to superfused ACSF. Electrical simulation was delivered using a bipolar tungsten electrode (FHS) placed […] away from a recorded neuron. Stimulations were delivered to slices for 0.1 ms at […] and separated by at least 10 s. Inward EPSCs and outward IPSPs were recorded by filling the patch pipette with a low chloride internal solution (ECI−=−90 mV) and holding the cell at −40 mV, which is the midpoint between ECI− and EK+/Na+. […] Recordings were filtered at 10 kHz. Synaptic recordings were analyzed using custom software developed by J. R. H. (Wdetecta).

The next assay has as its system neurons in hSS. The settings on record: 10 μM; 250 μm sections of hSS. As to the method:
as §1, §2

Another assay deals with hCS neurons. The assay is described as follows: Patch clamp recording of EPSCs in sliced hCS. Type of assay: cell-based, human. The settings on record: 1 mM, added to superfused ACSF. As for the experimental part:
Electrophysiology. […] Slicing was performed using a Leica VT1200 vibratome. […] Recordings were filtered at 10 kHz. […] Action potentials were analyzed using custom MATLAB (MathWorks) programs.

Assay [8] relates to TS Dlxi1/2b::eGFP+ cells in fused hSS-hCS. The assay is described as follows: Live imaging of interneuron migration in fused hSS-hCS from Timothy syndrome. Type of assay: cell-based, human. The settings on record: 15 μM, P<0.001. As to the method:
Live imaging and analysis of Dlxi1/2b::eGFP+ cell migration. The migration of Dlxi1/2b::eGFP+ cells was imaged for 8-12 hrs under environmentally controlled conditions (37° C., 5% CO2) in intact, fused hSS-hCS using a confocal microscope with a motorized stage (Leica SP8). Fused hSS-hCS were transferred to a well of a 96-well plate (glass-bottom plates, Corning) in 200 μl of NM. Spheroids were incubated in the environmentally controlled chamber for 30-60 min prior to imaging. During a given recording session, up to 8 fused hSS-hCS were imaged at a depth of 50-150 μm depth and a rate of 15-20 min/frame. For pharmacological manipulation, cells were imaged for 12 hrs to record a baseline. […] The field of view was readjusted to capture the previous region of interest and cells in fused hSS-hCS were imaged for an additional 12 hrs. […] For quantification of migration of Dlxi1/2b::eGFP+ cells after plating on coverslips, intact hSS were plated on Poly-ornithine/laminin (Sigma) coated glass coverslips (15 mm; Werner). […] To estimate the length of individual saltations, Dlxi1/2b::eGFP cells displaying a swelling of the soma were identified, and distance (in μm) to the new position of the soma following nucleokinesis was recorded manually. […] Path directness was calculated as the E/A ratio. […]

Consider `c1cc(CN2CCCNCCNCCCNCC2)ccc1CN1CCCNCCNCCCNCC1` [AMD3100], for which, in assay [1] (P=0.006), the saltation length entry is reported as “significant reduction” and the speed when mobile result was “significant reduction”. In addition, in assay [1] (P=0.02), the path directness result is listed as “change”. Also, in assay [1] (P=0.03), the frequency of saltations result is listed as “significant reduction”.
The term IC50 denotes the point on the concentration scale where inhibition reaches its midpoint. Turning to `O=C1[C@H](Cc2ccc(O)cc2)N2C(=O)CCN(C(=O)NCc3ccccc3)[C@H]2CN1Cc1cccc2ccccc12` [ICG-001], the 50% inhibitory concentration (IC50) in assay [2] was 3000 nM.
Consider `Cc1ccc2nc(NC(=O)CSc3nc4c(c(=O)n3-c3ccccc3)SCC4)sc2c1` [IWP-2], for which the IC50 in assay [3] is 27 nM.
Usually EC50 stands for the concentration that produces a half-maximal response. On to `O=C(CSc1nc2c(c(=O)n1-c1ccccc1)SCC2)Nc1ccc(-c2ccccc2)cn1` [IWP-L6], for which the EC50 on Porcn is 0.5 nM.
Turning to `Cc1cc(-c2ncc(CC(=O)Nc3ccc(-c4cnccn4)cn3)cc2C)ccn1` [LGK-974], the IC50 with Wnt signaling was 0.4 nM.
Broadly, the Kd is the concentration at which binding is half-saturated. Regarding `CNC1CCC(N(Cc2cccc(-c3ccncc3)c2)C(=O)c2sc3ccccc3c2Cl)CC1` (centres unmarked) [SAG], the dissociation constant Kd at Smo was 59 nM.
Consider `COc1ccc(-n2c(SCCCN3C(=O)c4cccc5cccc(c45)C3=O)nnc2-c2ccncc2)cc1` [WIKI4], for which the concentration for half-maximal inhibition (IC50) at TNKS2 was 15 nM.
With `Cc1cc(-c2ccc(CC(=O)Nc3ccc(-c4cccnc4)cc3)cc2)ccn1` [Wnt-059], in assay [4], the 50% inhibitory concentration (IC50) was 0.074 nM.
With `CC(=O)[C@H]1CC[C@H]2[C@@H]3CC[C@H]4C[C@H](O)CC[C@]4(C)[C@H]3CC[C@]12C` [allopregnanolone], in the assay with hSS [5], the “subpallial fate, neurotransmitter identity and GABAergic subtypes in hSS” value is “did not alter”. Also, the “frequency of spontaneous calcium spikes” value with hSS [6] is given as “significantly increased”.
For the compound `COc1ccc(-c2ccc(=N)n(CCCC(=O)O)n2)cc1` [gabazine], in assay [7], the “evoked disynaptic IPSCs after electrical stimulation” value is “sensitive”. In the assay with neurons in hSS, the “spontaneous inhibitory postsynaptic responses (sIPSCs)” value is on record as “abolished”.
In the case of `O=C(O)c1cc(=O)c2ccccc2[nH]1` [kynurenic acid], the EPSCs result in the assay with hCS neurons is reported as “blocked”.
Turning to `CC[C@H](CO)Nc1nc(NCc2ccccc2)c2ncn(C(C)C)c2n1` [roscovitine], the saltation length entry in [8] is recorded as “rescuing”.
